Laboratory results reported in US9187455B2, “Substituted pyridazines as PDE10A inhibitors” (Hoffmann-La Roche Inc., priority 2009, dated 2015).

What follows are compounds tested against T1, PDE10A2 (Homo sapiens, UniProt Q9Y233) (assay: PDE10A2 Scintillation Proximity Assay (SPA), [3H]-cGMP hydrolysis). Conditions: catalytic domain of human PDE10A2 (S449-D789), 0.25 nM enzyme, 50 nM cGMP + 50 nM [3H]-cGMP, 30 minutes at room temperature; read-out: PDE10A2 inhibition IC50.
T1 construct: residues serine 449 to aspartate 789; His6 (H6) with Gateway linker and thrombin cleavage site (N, cleaved yes); made in house; host or cells: E. coli BL21(DE3) pLysS
T1 sequence (Q9Y233 715-1055): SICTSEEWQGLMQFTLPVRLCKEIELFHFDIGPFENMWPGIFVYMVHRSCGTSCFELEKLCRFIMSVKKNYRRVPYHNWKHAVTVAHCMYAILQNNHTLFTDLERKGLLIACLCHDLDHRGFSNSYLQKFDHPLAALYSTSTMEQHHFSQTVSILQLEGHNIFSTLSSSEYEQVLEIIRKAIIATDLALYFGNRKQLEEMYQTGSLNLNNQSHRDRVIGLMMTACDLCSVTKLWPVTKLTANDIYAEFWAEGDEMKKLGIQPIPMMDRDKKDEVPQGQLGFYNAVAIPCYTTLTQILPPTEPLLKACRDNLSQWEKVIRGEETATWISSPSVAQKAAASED
Assay type: biochemical
Protocol: The following tests were carried out in order to determine the activity of the compounds of the present invention. PDE10 activity of the compounds of the present invention is determined using a Scintillation Proximity Assay (SPA)-based method similar to the one previously described (Fawcett, L. et al., ProcNatl Acad Sci USA (2000) 97(7):3702-3707).
PDE10A1 and PDE10A2 are two splice variants of PDE10A. There are these 2 splice variants known, which differ in the N-terminal part of the protein. The catalytic domains of PDE10A1 and PDE10A2 are identical. The assay for PDE10A2 described below is therefore also representative for PDE10A1 and also for PDE10A in general.
The PDE10A2 assay was performed in a two step procedure in 96-well micro titer plates. The reaction mixture of 80 μl contained 20 mM HEPES/10 mM MgCl2/[…] (pH 7.5), 50 nM cGMP (Sigma) and 50 nM [^3H]-cGMP (GE Healthcare), 0.25 nM PDE10A2 with or without a specific test compound. A range of concentrations of the potential inhibitor was used to generate data for calculating the concentration of inhibitor resulting in 50% of the effect (e.g. IC50, the concentration of the competitor inhibiting PDE10A2 activity 50%). Non-specific activity was tested without the enzyme. The reaction was initiated by addition of the substrate solution (cGMP and [^3H]-cGMP) and allowed to progress for 30 minutes at room temperature. The reaction was terminated by transferring 50 μl of the reaction mixture into an OptiPlate (Perkin Elmer) containing 25 μl of YSi-SPA scintillation beads (GE Healthcare) in 18 mM zinc sulphate solution (stop reagent). After 1 h under shaking, the plate was centrifuged one minute at 1000 rpm to allow beads to settle. Afterwards, radioactive counts were measured on a Perkin Elmer TopCount Scintillation plate reader.
The catalytic domain of human PDE10A2, residues serine 449 to aspartate 789, was amplified by PCR using cDNA (Origene) and the oligonucleotides 5′-GGGGACAAGTTTGT […]-3′ (with AttB1 recombination site in bold and thrombin protease cleavage site in italics) and 5′-[…]-3′ (with AttB2 recombination site in bold) which conferred Gateway recombination sites. The PCR product was used in a BP recombination reaction with pDONR221 to generate pENTR Thm-PDE10A2(S449-D789) which was DNA sequence verified and then used in an LR recombination reaction with a Gateway modified version of pET11a. The resulting expression vector, placT7.2H6-(gwl)-Thm-PDE10A2(S449-D789) was DNA sequence confirmed and transformed into E. coli strain BL21(DE3) pLysS and recombinant protein was produced in TB medium at 20° C. by induction to a final IPTG concentration of 0.5 mM at an optical density of 1.0 at 600 nm for 20 hours. About 30% of the protein was in the soluble fraction of the cell homogenate. The protein was purified using sequential chromatography on Ni-NTA and HiTrapQ/HiTrapS. After thrombin digest at room temperature a HiTrapChelating/HiTrap Benzamindin chromatography removed impurities, uncleaved protein and thrombin. Final purification of PDE10A2(S449-D789) was performed on a Superdex 75 size exclusion chromatography equilibrated with 25 mM HEPES pH 8.4, 0.15 M NaCl. The yield of pure protein was 2 mg/liter of culture volume is relatively low. The purity of the protein was >95%, monomeric and monodisperse as shown by SDS-PAGE, HPLC and analytical ultracentrifugation.

IC50 [nM] | Structure (SMILES)
71 | Cc1cncc(-n2ccc(=O)c(-c3ccnn3-c3ccc4c(c3)OCCO4)n2)c1 [Example 36, 3-[2-(2,3-Dihydro-benzo[1,4]dioxin-6-yl)-2H-pyrazol-3-yl]-1-(5-methyl-pyridin-3-yl)-1H-pyridazin-4-one]
78 | O=c1ccn(-c2ccnc(Cl)c2)nc1-c1ccnn1-c1ccccc1F [Example 63, 1-(2-Chloro-pyridin-4-yl)-3-[2-(2-fluoro-phenyl)-2H-pyrazol-3-yl]-1H-pyridazin-4-one]
25 | Cc1cncc(-n2ccc(=O)c(-c3ccnn3-c3ccnc4ccc(F)cc34)n2)c1 [Example 48, 3-[2-(6-Fluoro-quinolin-4-yl)-2H-pyrazol-3-yl]-1-(5-methyl-pyridin-3-yl)-1H-pyridazin-4-one]
50 | O=c1ccn(-c2ccnc(Cl)c2)nc1-c1ccnn1-c1cccc(Cl)c1 [Example 56, 3-[2-(3-Chloro-phenyl)-2H-pyrazol-3-yl]-1-(2-chloro-pyridin-4-yl)-1H-pyridazin-4-one]
148 | O=c1ccn(-c2cncc(Cl)c2)nc1-c1ccnn1-c1ccccc1F [Example 64, 1-(5-Chloro-pyridin-3-yl)-3-[2-(2-fluoro-phenyl)-2H-pyrazol-3-yl]-1H-pyridazin-4-one]
9 | O=c1ccn(-c2ccncc2)nc1-c1ccnn1-c1ccnc2ccccc12 [Example 20, 1-Pyridin-4-yl-3-(2-quinolin-4-yl-2H-pyrazol-3-yl)-1H-pyridazin-4-one]
107 | O=c1ccn(-c2ccc(C(F)(F)F)nc2)nc1-c1ccnn1-c1cccc2cnccc12 [Example 81, 3-(2-Isoquinolin-5-yl-2H-pyrazol-3-yl)-1-(6-trifluoromethyl-pyridin-3-yl)-1H-pyridazin-4-one]
619 | N#Cc1ccc(-n2ccc(=O)c(-c3ccnn3-c3ccccc3F)n2)cn1 [Example 76, 5-{3-[2-(2-Fluoro-phenyl)-2H-pyrazol-3-yl]-4-oxo-4H-pyridazin-1-yl}-pyridine-2-carbonitrile]
81 | O=c1ccn(-c2cccnc2)nc1-c1ccnn1-c1ccc2c(c1)OCCO2 [Example 34, 3-[2-(2,3-Dihydro-benzo[1,4]dioxin-6-yl)-2H-pyrazol-3-yl]-1-pyridin-3-yl-1H-pyridazin-4-one]
3230 | CN(C)S(=O)(=O)c1cccc(-n2nccc2-c2nn(-c3ccncc3)ccc2=O)c1 [Example 28, N,N-Dimethyl-3-[5-(4-oxo-1-pyridin-4-yl-1,4-dihydro-pyridazin-3-yl)-pyrazol-1-yl]-benzenesulfonamide]
20 | O=c1ccn(-c2cncc(Cl)c2)nc1-c1ccnn1-c1ccnc2ccccc12 [Example 51, 1-(5-Chloro-pyridin-3-yl)-3-(2-quinolin-4-yl-2H-pyrazol-3-yl)-1H-pyridazin-4-one]
134 | Cc1cc(-n2ccc(=O)c(-c3ccnn3-c3cccc4ncccc34)n2)ccn1 [Example 83, 1-(2-Methyl-pyridin-4-yl)-3-(2-quinolin-5-yl-2H-pyrazol-3-yl)-1H-pyridazin-4-one]
477 | N#Cc1cncc(-n2ccc(=O)c(-c3ccnn3-c3ccccc3F)n2)c1 [Example 87, 5-{3-[2-(2-Fluoro-phenyl)-2H-pyrazol-3-yl]-4-oxo-4H-pyridazin-1-yl}-nicotinonitrile]
28 | O=c1ccn(-c2ccncc2)nc1-c1ccnn1-c1cccc2cnccc12 [Example 21, 3-(2-Isoquinolin-5-yl-2H-pyrazol-3-yl)-1-pyridin-4-yl-1H-pyridazin-4-one]
220 | O=c1ccn(-c2ccnc(Cl)c2)nc1-c1ccnn1-c1cccc2cnccc12 [Example 59, 1-(2-Chloro-pyridin-4-yl)-3-(2-isoquinolin-5-yl-2H-pyrazol-3-yl)-1H-pyridazin-4-one]
144 | O=c1ccn(-c2cncc3ccccc23)nc1-c1ccnn1-c1ccccc1F [Example 65, 3-[2-(2-Fluoro-phenyl)-2H-pyrazol-3-yl]-1-isoquinolin-4-yl-1H-pyridazin-4-one]

IC50 [nM] | Structure (SMILES)
103 | Cc1ccc(-n2nccc2-c2nn(-c3ccncc3)ccc2=O)cc1 [Example 11, 1-Pyridin-4-yl-3-(2-p-tolyl-2H-pyrazol-3-yl)-1H-pyridazin-4-one]
163 | O=c1ccn(-c2cncc(F)c2)nc1-c1ccnn1-c1ccnc2ccc(F)cc12 [Example 49, 1-(5-Fluoro-pyridin-3-yl)-3-[2-(6-fluoro-quinolin-4-yl)-2H-pyrazol-3-yl]-1H-pyridazin-4-one]
120 | O=c1ccn(-c2ccc(C(F)(F)F)nc2)nc1-c1ccnn1-c1ccccc1F [Example 75, 3-[2-(2-Fluoro-phenyl)-2H-pyrazol-3-yl]-1-(6-trifluoromethyl-pyridin-3-yl)-1H-pyridazin-4-one]
72 | O=c1ccn(-c2ccc(C(F)(F)F)nc2)nc1-c1ccnn1-c1cccc2ncccc12 [Example 80, 3-(2-Quinolin-5-yl-2H-pyrazol-3-yl)-1-(6-trifluoromethyl-pyridin-3-yl)-1H-pyridazin-4-one]
48 | COC(=O)c1cccc(-n2nccc2-c2nn(-c3ccncc3)ccc2=O)c1 [Example 10, 3-[5-(4-Oxo-1-pyridin-4-yl-1,4-dihydro-pyridazin-3-yl)-pyrazol-1-yl]-benzoic acid methyl ester]
69 | O=c1ccn(-c2ccncc2)nc1-c1ccnn1-c1ccccc1 [Example 30, 3-(2-Phenyl-2H-pyrazol-3-yl)-1-pyridin-4-yl-1H-pyridazin-4-one]
100 | O=c1ccn(-c2cncc3ccccc23)nc1-c1ccnn1-c1cccc(Cl)c1 [Example 66, 3-[2-(3-Chloro-phenyl)-2H-pyrazol-3-yl]-1-isoquinolin-4-yl-1H-pyridazin-4-one]
1210 | O=c1ccn(-c2ccncc2)nc1-c1ccnn1-c1ccnc(Cl)c1 [Example 23, 3-[2-(2-Chloro-pyridin-4-yl)-2H-pyrazol-3-yl]-1-pyridin-4-yl-1H-pyridazin-4-one]
437 | Cc1cc(-n2ccc(=O)c(-c3ccnn3-c3ccc4c(c3)OCCO4)n2)ccn1 [Example 38, 3-[2-(2,3-Dihydro-benzo[1,4]dioxin-6-yl)-2H-pyrazol-3-yl]-1-(2-methyl-pyridin-4-yl)-1H-pyridazin-4-one]
811 | O=c1ccn(-c2ccncc2)nc1-c1ccnn1-c1ccncc1 [Example 31, 1-Pyridin-4-yl-3-(2-pyridin-4-yl-2H-pyrazol-3-yl)-1H-pyridazin-4-one]
183 | O=c1ccn(-c2ccc(Cl)nc2)nc1-c1ccnn1-c1ccccc1F [Example 77, 1-(6-Chloro-pyridin-3-yl)-3-[2-(2-fluoro-phenyl)-2H-pyrazol-3-yl]-1H-pyridazin-4-one]
18 | C#Cc1cccc(-n2nccc2-c2nn(-c3ccncc3)ccc2=O)c1 [Example 99, 3-[2-(3-Ethynyl-phenyl)-2H-pyrazol-3-yl]-1-pyridin-4-yl-1H-pyridazin-4-one]
102 | Cc1cncc(-n2ccc(=O)c(-c3ccnn3-c3ccnc4cc(Cl)ccc34)n2)c1 [Example 82, 3-[2-(7-Chloro-quinolin-4-yl)-2H-pyrazol-3-yl]-1-(5-methyl-pyridin-3-yl)-1H-pyridazin-4-one]
46 | O=c1ccn(-c2cncc(OC(F)F)c2)nc1-c1ccnn1-c1cccc2ncccc12 [Example 89, 1-(5-Difluoromethoxy-pyridin-3-yl)-3-(2-quinolin-5-yl-2H-pyrazol-3-yl)-1H-pyridazin-4-one]
17 | O=c1ccn(-c2ccncc2)nc1-c1ccnn1-c1cccc(Br)c1 [Example 97, 3-[2-(3-Bromo-phenyl)-2H-pyrazol-3-yl]-1-pyridin-4-yl-1H-pyridazin-4-one]
